Measurements as given in US20120035206A1, “PREPARATION AND APPLICATION OF NOVEL ANTIBACTERIAL AND ANTICANCER COMPOUNDS AND THEIR DERIVATIVES” (priority 2009, published 2012).
Values after ≈ are worked out from the molar mass of the structure shown.

Assays:
Type in all cases: cell-based
E. floccosum = test: In vitro antibacterial (antifungal) test, two-fold dilution MIC; conditions: Epidermophyton floccosum, RPMI 1640, culture 2-7 days
C. parapsilosis = test: as above; conditions: Lodderomyces parapsilosis, RPMI 1640, culture 2-7 days
C. albicans = test: as above; conditions: Candida albicans, read-out: MIC C. albicas
S. schenekn = test: as above; conditions: RPMI 1640, culture 2-7 days
M. gypseum = test: as above; conditions: Nannizzia gypsea, RPMI 1640, culture 2-7 days
C. neoformans = test: as above; conditions: Cryptococcus neoformans, RPMI 1640, culture 2-7 days
A. niger = test: as above; conditions: Aspergillus niger, RPMI 1640, culture 2-7 days
C. Krusei = test: as above; conditions: Pichia kudriavzevii, RPMI 1640, culture 2-7 days
C. glabrata = test: as above; conditions: Nakaseomyces glabratus, RPMI 1640, culture 2-7 days
C. tropicalis = test: as above; conditions: Candida tropicalis, RPMI 1640, culture 2-7 days
Terchoderma = test: as above; conditions: Trichoderma, RPMI 1640, culture 2-7 days
[1] = tested on: Fusarium oxysporum vasinfectum; test: as above; conditions: RPMI 1640, culture 2-7 days
gibberella = test: as above; conditions: RPMI 1640, culture 2-7 days
Setosphaeria turcica = test: as above; conditions: Exserohilum turcicum, RPMI 1640, culture 2-7 days
HTB-131MDA-MB-453 = test: In vitro anticancer MTT experiment; conditions: concentration 5 ug/ml, 48 h or 72 h, read-out: inhibition ratio HTB-131MDA-MB-453
Method in brief: (§1)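 Human cancer cell lines in RPMI 1640 with 10% fetal calf serum and 0.01% L-glutamine were seeded at 6000-7000 cells per well, settled 12 h, then exposed to compound for 48 h or 72 h at 37° C., 5% CO2. Values are percent inhibition at 5 ug/ml by MTT, A570.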

HTB-94 = test: In vitro anticancer MTT experiment; conditions: concentration 5 ug/ml, 48 h or 72 h, read-out: inhibition ratio HTB-94
Method in brief: as §1

CRL-1469PANC-1 = test: In vitro anticancer MTT experiment; conditions: concentration 5 ug/ml, 48 h or 72 h, read-out: inhibition ratio CRL-1469PANC-1
Method in brief: as §1

CRL-2233SNU-398 = test: In vitro anticancer MTT experiment; conditions: concentration 5 ug/ml, 48 h or 72 h, read-out: inhibition ratio CRL-2233SNU-398
Method in brief: as §1

SGC7901 = test: In vitro anticancer MTT experiment; conditions: Homo sapiens, SGC-7901, concentration 5 ug/ml, 48 h or 72 h, read-out: inhibition ratio SGC7901
Method in brief: as §1

HTB-38HT-29 = test: In vitro anticancer MTT experiment; conditions: concentration 5 ug/ml, 48 h or 72 h, read-out: inhibition ratio HTB-38HT-29
Method in brief: as §1

A375 = test: In vitro anticancer MTT experiment; conditions: Homo sapiens, A-375, concentration 5 ug/ml, 48 h or 72 h, read-out: inhibition ratio A375
Method in brief: as §1

AS24391 = test: In vitro anticancer MTT experiment; conditions: concentration 5 ug/ml, 48 h or 72 h, read-out: inhibition ratio AS24391
Method in brief: as §1

L1210 = test: In vitro anticancer MTT experiment; conditions: Mus musculus, concentration 5 ug/ml, 48 h or 72 h, read-out: inhibition ratio L1210
Method in brief: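 Inhibition ratios were measured at a compound concentration of 5 ug/ml. Log-phase cells grown in RPMI 1640/10% fetal calf serum were treated for 48 h or 72 h, and viability was assessed by MTT reduction with absorbance read at 570 nm.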

FTC 133 = test: In vitro anticancer MTT experiment; conditions: Homo sapiens, concentration 5 ug/ml, 48 h or 72 h, read-out: inhibition ratio FTC 133
Method in brief: as §1

HTB-95637 = test: In vitro anticancer MTT experiment; conditions: concentration 5 ug/ml, 48 h or 72 h, read-out: inhibition ratio HTB-95637
Method in brief: as §1

CRL-1435PC-3 = test: In vitro anticancer MTT experiment; conditions: concentration 5 ug/ml, 48 h or 72 h, read-out: inhibition ratio CRL-1435PC-3
Method in brief: as §1

B01092 = test: In vitro anticancer MTT experiment; conditions: concentration 5 ug/ml, 48 h or 72 h, read-out: inhibition ratio B01092
Method in brief: as §1

L428 = test: In vitro anticancer MTT experiment; conditions: Homo sapiens, L-428, concentration 5 ug/ml, 48 h or 72 h, read-out: inhibition ratio L428
Method in brief: as §1

| SMILES | MIC (E. floccosum) [µg/mL] | MIC (C. parapsilosis) [µg/mL] | MIC (C. albicans) [µg/mL] | MIC (S. schenekn) [µg/mL] | MIC (M. gypseum) [µg/mL] | MIC (C. neoformans) [µg/mL] | MIC (A. niger) [µg/mL] | MIC (C. Krusei) [µg/mL] | MIC (C. glabrata) [µg/mL] | MIC (C. tropicalis) [µg/mL] | MIC (Terchoderma) [µg/mL] | MIC [1] [µg/mL] | MIC (gibberella) [µg/mL] | MIC (Setosphaeria turcica) [µg/mL] | inhibition at 5 µg/mL (HTB-131MDA-MB-453) [%] | inhibition at 5 µg/mL (HTB-94) [%] | inhibition at 5 µg/mL (CRL-1469PANC-1) [%] | inhibition at 5 µg/mL (CRL-2233SNU-398) [%] | inhibition at 5 µg/mL (SGC7901) [%] | inhibition at 5 µg/mL (HTB-38HT-29) [%] | also measured |
| --- | --- | --- | --- | --- | --- | --- | --- | --- | --- | --- | --- | --- | --- | --- | --- | --- | --- | --- | --- | --- | --- |
| Cc1ccc2c(c1)C(=O)CCS2 [Compound 1] | 32 (≈ 180 µM) | 64 (≈ 359 µM) | 64 (≈ 359 µM) | 32 (≈ 180 µM) | 64 (≈ 359 µM) | 64 (≈ 359 µM) | 32 (≈ 180 µM) | 32 (≈ 180 µM) | 64 (≈ 359 µM) | 32 (≈ 180 µM) | – | – | – | – | – | – | – | – | – | – | – |
| Cc1ccc2c(c1)C(=O)/C(=C\O)CS2 [Compound 2] | 32 (≈ 155 µM) | 64 (≈ 310 µM) | 32 (≈ 155 µM) | 16 (≈ 77.6 µM) | 32 (≈ 155 µM) | 32 (≈ 155 µM) | 64 (≈ 310 µM) | 32 (≈ 155 µM) | 32 (≈ 155 µM) | 32 (≈ 155 µM) | – | – | – | – | – | – | – | – | – | – | – |
| Cc1cc2c(cc1F)SC/C(=C\Cl)C2=O [Compound 6, (Z)-3-(chloromethylene)-7-fluoro-6-methylthiochroman-4-one] | 32 (≈ 132 µM) | 4 (≈ 16.5 µM) | 32 (≈ 132 µM) | 16 (≈ 65.9 µM) | 4 (≈ 16.5 µM) | 4 (≈ 16.5 µM) | – | 8 (≈ 33 µM) | 8 (≈ 33 µM) | 16 (≈ 65.9 µM) | 16 (≈ 65.9 µM) | 16 (≈ 65.9 µM) | 8 (≈ 33 µM) | 4 (≈ 16.5 µM) | 60.7 | 45.4 | 53.8 | 60.1 | 45.3 | 44.2 | inhibition at 5 µg/mL (A375): 65.8%; inhibition at 5 µg/mL (AS24391): 59.8%; inhibition at 5 µg/mL (L1210): 76.9%; inhibition at 5 µg/mL (FTC 133): 59.3%; inhibition at 5 µg/mL (HTB-95637): 48%; inhibition at 5 µg/mL (CRL-1435PC-3): 56.7%; inhibition at 5 µg/mL (B01092): 57.9% |
| O=C1/C(=C/Br)CSc2ccc(Cl)cc21 [Compound 10, (Z)-3-(bromomethylene)-6-chlorothiochroman-4-one] | 64 (≈ 221 µM) | 8 (≈ 27.6 µM) | 64 (≈ 221 µM) | 64 (≈ 221 µM) | 64 (≈ 221 µM) | 4 (≈ 13.8 µM) | – | 16 (≈ 55.3 µM) | 64 (≈ 221 µM) | 32 (≈ 111 µM) | 16 (≈ 55.3 µM) | 64 (≈ 221 µM) | 32 (≈ 111 µM) | 32 (≈ 111 µM) | 53.5 | 46.8 | 45.1 | 45.6 | 56.5 | 54.7 | inhibition at 5 µg/mL (L428): 50.6%; inhibition at 5 µg/mL (AS24391): 56.7%; inhibition at 5 µg/mL (L1210): 84.4%; inhibition at 5 µg/mL (FTC 133): 45.6%; inhibition at 5 µg/mL (HTB-95637): 40.8%; inhibition at 5 µg/mL (CRL-1435PC-3): 46.6%; inhibition at 5 µg/mL (B01092): 69% |
